The record followed here is the supplement of paper PMC10307832.

What all share (test): relative viability (nuclei count vs DMSO), 5 days (fraction); higher = more cells survive
Compound in one assay: COc1cc([C@@H]2c3cc4c(cc3[C@@H](O[C@@H]3O[C@@H]5CO[C@@H](C)O[C@H]5[C@H](O)[C@H]3O)[C@H]3COC(=O)[C@H]23)OCO4)cc(OC)c1O [Etoposide]
The essentials:
(§1)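 Lung cancer cell lines received five library-drug doses (not always all listed) spaced by √10, pinned on vehicle-anchored 1536-well plates after an overnight stay at 37 °C. Five days later, with no medium change, nuclei were Hoechst-stained, imaged at 4× and counted with MetaXpress. Viability is treated-well nuclei relative to vehicle-well nuclei, as a median across plates. Passing plates had control CV below 25% and at least one doubling.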

Compound in another assay: CC1=C(N=C(N=C1N)[C@H](CC(=O)N)NC[C@@H](C(=O)N)N)C(=O)N[C@@H]([C@H](C2=CN=CN2)OC3C(C(C(C(O3)CO)O)O)OC4C(C(C(C(O4)CO)O)OC(=O)N)O)C(=O)N[C@H](C)[C@H]([C@H](C)C(=O)N[C@@H]([C@@H](C)O)C(=O)NCCC5=NC(=CS5)C6=NC(=CS6)C(=O)NCCC[S+](C)C)O [Bleomycin]
The conditions noted are these: main component drawn. The essentials:
as §1

Compound in the assay “Bleomycin + Trametinib”: CC1=C(N=C(N=C1N)[C@H](CC(=O)N)NC[C@@H](C(=O)N)N)C(=O)N[C@@H]([C@H](C2=CN=CN2)OC3C(C(C(C(O3)CO)O)O)OC4C(C(C(C(O4)CO)O)OC(=O)N)O)C(=O)N[C@H](C)[C@H]([C@H](C)C(=O)N[C@@H]([C@@H](C)O)C(=O)NCCC5=NC(=CS5)C6=NC(=CS6)C(=O)NCCC[S+](C)C)O [Bleomycin] + CC(=O)Nc1cccc(-n2c(=O)n(C3CC3)c(=O)c3c(Nc4ccc(I)cc4F)n(C)c(=O)c(C)c32)c1 [Trametinib] (partner 0.02 µM)
The conditions noted are these: main component drawn. The essentials:
(§2)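 Each reported value is a median over duplicate plates. It expresses relative viability: treated-well nuclei count divided by vehicle-well nuclei count. Lung cancer cell lines in 1536-well plates were dosed by pin tool a day after seeding, alone with one drug or with a fixed anchor-drug dose plus five library-drug doses (not always all listed) in √10 steps, and nuclei were counted after 5 days.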

Compound in the assay “Bleomycin + Foretinib”: CC1=C(N=C(N=C1N)[C@H](CC(=O)N)NC[C@@H](C(=O)N)N)C(=O)N[C@@H]([C@H](C2=CN=CN2)OC3C(C(C(C(O3)CO)O)O)OC4C(C(C(C(O4)CO)O)OC(=O)N)O)C(=O)N[C@H](C)[C@H]([C@H](C)C(=O)N[C@@H]([C@@H](C)O)C(=O)NCCC5=NC(=CS5)C6=NC(=CS6)C(=O)NCCC[S+](C)C)O [Bleomycin] + COc1cc2c(Oc3ccc(NC(=O)C4(C(=O)Nc5ccc(F)cc5)CC4)cc3F)ccnc2cc1OCCCN1CCOCC1 [Foretinib] (partner 0.25 µM)
The conditions noted are these: main component drawn. In short, it runs like this: as §2

As for UMC-11, the relative viability in the assay with Etoposide (0.01 µM) is 0.999; with Etoposide (0.03162 µM) it was 1.06; in the assay with Etoposide (0.1 µM), 0.507; with Etoposide (0.3162 µM), 0.607; in the assay with Etoposide (1 µM), 0.343; in the assay with Bleomycin (0.01 µM) it was 0.936. The relative viability with Bleomycin (0.03162 µM) turned out to be 0.918; in the assay with Bleomycin (0.1 µM), 0.922; in the assay with Bleomycin (0.3162 µM), 0.769; in the assay with Bleomycin (1 µM) it was 0.496; with Bleomycin + Trametinib (first compound 0.01 µM), 0.653; with Bleomycin + Trametinib (first compound 0.03162 µM), 0.652. The relative viability was 0.774 with Bleomycin + Trametinib (first compound 0.1 µM); 0.632 with Bleomycin + Trametinib (first compound 0.3162 µM); 0.345 in the assay with Bleomycin + Trametinib (first compound 1 µM); 0.93 in the assay with Bleomycin + Foretinib (first compound 0.01 µM); 1.02 with Bleomycin + Foretinib (first compound 0.03162 µM); 1.06 in the assay with Bleomycin + Foretinib (first compound 0.1 µM). The relative viability with Bleomycin + Foretinib (first compound 0.3162 µM) turned out to be 0.742; with Bleomycin + Foretinib (first compound 1 µM), 0.574.
